Two compounds from ChEMBL document CHEMBL5131484, “Design and synthesis of adamantane-1-carbonyl thiourea derivatives as potent and selective inhibitors of h-P2X4 and h-P2X7 receptors: An Emerging therapeutic tool for treatment of inflammation and neurological disorders” (Eur J Med Chem, 2022) can be followed below.

As a reminder, the inhibition is the drop in the measured response relative to a control, in per cent. In general, Emax refers to the greatest response seen or fitted, relative to the assay's reference. By IC50 is commonly meant the midpoint of a concentration-inhibition curve.

Data set [1] is described as follows: Cytotoxicity against human 1321N1 cells assessed as reduction in cell viability at 50 uM incubated for 24 hrs by MTT assay relative to control. The format is functional. On the technique in general: Tetrazolium dyes change colour on reduction, which living cells bring about.
Data set [2] can be described thus: Cytotoxicity against human HEK293 cells assessed as reduction in cell viability at 50 uM incubated for 24 hrs by MTT assay relative to control. In kind it is toxicity, cell-based. The following applies: read-out: INH.
The subject of data set [3] is HeLa. Description: Cytotoxicity against human HeLa cells assessed as reduction in cell viability at 50 uM incubated for 24 hrs by MTT assay relative to control. The format is functional.
In data set [4] the target is T1, P2X purinoceptor 4 (Homo sapiens) (UniProt Q99571).
T1 sequence (whole entry): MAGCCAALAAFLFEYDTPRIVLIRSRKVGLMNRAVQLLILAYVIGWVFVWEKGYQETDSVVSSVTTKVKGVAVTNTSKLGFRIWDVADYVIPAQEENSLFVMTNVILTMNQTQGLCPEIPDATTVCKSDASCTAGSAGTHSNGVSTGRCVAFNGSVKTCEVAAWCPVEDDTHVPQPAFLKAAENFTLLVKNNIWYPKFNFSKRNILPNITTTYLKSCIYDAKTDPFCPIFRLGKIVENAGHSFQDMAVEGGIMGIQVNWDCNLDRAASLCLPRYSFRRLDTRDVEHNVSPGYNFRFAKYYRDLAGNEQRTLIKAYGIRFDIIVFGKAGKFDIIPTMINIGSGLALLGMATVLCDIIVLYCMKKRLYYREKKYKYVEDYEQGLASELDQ
Description: Negative allosteric modulation activity at human P2X4 receptor expressed in human 1321N1 cells assessed as ATP induced calcium response by measuring maximal ATP efficacy at 40 nM relative to control. The format is cell-based. The conditions noted are these: filed as negative allosteric modulator.

The target in data set [5] is T1, P2X purinoceptor 4 (Homo sapiens). Put plainly: Negative allosteric modulation activity at human P2X4 receptor expressed in human 1321N1 cells assessed as ATP induced calcium response by measuring maximal ATP efficacy at 100 nM relative to control. The format is cell-based. The following applies: filed as negative allosteric modulator.
The target is the same in data set [6]. Put plainly: Negative allosteric modulation activity at human P2X4 receptor expressed in human 1321N1 cells assessed as ATP induced calcium response by measuring maximal ATP efficacy at 200 nM relative to control. In kind it is cell-based.
The target in data set [7] is T2, P2X purinoceptor 2 (Homo sapiens) (UniProt Q9UBL9).
T2 sequence (whole entry): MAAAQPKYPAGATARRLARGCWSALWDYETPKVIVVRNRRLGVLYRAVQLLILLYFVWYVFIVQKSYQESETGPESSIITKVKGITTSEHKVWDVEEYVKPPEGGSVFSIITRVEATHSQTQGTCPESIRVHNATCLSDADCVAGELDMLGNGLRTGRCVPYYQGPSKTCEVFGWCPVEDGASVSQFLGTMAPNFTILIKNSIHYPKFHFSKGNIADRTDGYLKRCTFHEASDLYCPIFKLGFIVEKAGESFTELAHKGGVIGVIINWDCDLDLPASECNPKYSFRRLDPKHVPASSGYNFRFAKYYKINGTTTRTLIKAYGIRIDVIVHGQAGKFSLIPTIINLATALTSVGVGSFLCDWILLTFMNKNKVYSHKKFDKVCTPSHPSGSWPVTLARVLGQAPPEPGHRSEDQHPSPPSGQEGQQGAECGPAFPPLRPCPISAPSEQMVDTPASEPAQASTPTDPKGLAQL
Put plainly: Negative allosteric modulation activity at human P2X2 receptor expressed in human 1321N1 cells assessed as reduction in intracellular Ca2+ influx incubated for 30 mins by Fura-2 AM based fluorescence assay relative to control. The format is cell-based.

In data set [8] the target is P2X purinoceptor 5 (Homo sapiens, UniProt Q93086). Description: Negative allosteric modulation activity at human P2X5 receptor expressed in human 1321N1 cells assessed as reduction in intracellular Ca2+ influx incubated for 30 mins by Fura-2 AM based fluorescence assay relative to control. The format is cell-based.
Chain of P2X purinoceptor 5 (Q93086 whole entry): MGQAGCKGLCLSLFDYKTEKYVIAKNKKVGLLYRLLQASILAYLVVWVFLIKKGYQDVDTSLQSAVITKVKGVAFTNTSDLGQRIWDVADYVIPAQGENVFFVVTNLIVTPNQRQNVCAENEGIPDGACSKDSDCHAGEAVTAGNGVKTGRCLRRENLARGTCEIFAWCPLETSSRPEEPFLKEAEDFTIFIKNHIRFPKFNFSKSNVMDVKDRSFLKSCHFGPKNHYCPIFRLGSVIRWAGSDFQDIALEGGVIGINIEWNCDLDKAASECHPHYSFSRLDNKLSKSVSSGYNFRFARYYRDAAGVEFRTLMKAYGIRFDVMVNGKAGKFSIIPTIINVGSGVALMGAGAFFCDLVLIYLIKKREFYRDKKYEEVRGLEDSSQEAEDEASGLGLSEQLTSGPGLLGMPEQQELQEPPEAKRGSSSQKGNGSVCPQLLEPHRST
The target in data set [9] is T3, P2X purinoceptor 7 (Homo sapiens, UniProt Q99572).
T3 sequence (Q99572 whole entry): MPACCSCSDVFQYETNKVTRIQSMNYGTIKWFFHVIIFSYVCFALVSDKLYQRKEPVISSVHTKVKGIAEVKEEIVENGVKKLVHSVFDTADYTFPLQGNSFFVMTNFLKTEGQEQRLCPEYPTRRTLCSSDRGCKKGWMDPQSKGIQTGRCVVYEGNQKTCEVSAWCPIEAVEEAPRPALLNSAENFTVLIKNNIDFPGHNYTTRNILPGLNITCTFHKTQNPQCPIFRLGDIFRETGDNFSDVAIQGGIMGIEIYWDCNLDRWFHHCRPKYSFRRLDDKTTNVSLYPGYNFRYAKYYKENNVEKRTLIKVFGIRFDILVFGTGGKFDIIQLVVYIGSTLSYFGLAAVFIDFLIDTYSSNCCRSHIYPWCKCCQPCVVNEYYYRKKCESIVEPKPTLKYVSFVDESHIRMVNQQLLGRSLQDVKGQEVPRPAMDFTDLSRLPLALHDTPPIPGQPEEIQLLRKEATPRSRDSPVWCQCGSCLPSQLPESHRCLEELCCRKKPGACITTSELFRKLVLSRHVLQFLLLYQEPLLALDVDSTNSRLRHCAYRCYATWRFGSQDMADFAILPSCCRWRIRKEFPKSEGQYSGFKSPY
Put plainly: Negative allosteric modulation activity at human P2X7 receptor expressed in human 1321N1 cells assessed as reduction in intracellular Ca2+ influx incubated for 30 mins by Fura-2 AM based fluorescence assay. In kind it is cell-based.

The target of data set [10] is T4, P2X purinoceptor 7 (Homo sapiens) (UniProt Q99572).
T4 sequence (whole entry): T3 sequence (Q99572 whole entry)
Put plainly: Negative allosteric modulation activity at human P2X7 receptor expressed in human 1321N1 cells assessed as ATP induced calcium response by measuring maximal ATP efficacy at 40 nM relative to control. The format is cell-based. The following applies: filed as negative allosteric modulator.

For data set [11], the target named is T4, P2X purinoceptor 7 (Homo sapiens). Put plainly: Negative allosteric modulation activity at human P2X7 receptor expressed in human 1321N1 cells assessed as ATP induced calcium response by measuring maximal ATP efficacy at 100 nM relative to control. The format is cell-based. The conditions noted are these: filed as negative allosteric modulator.
For data set [12] the target is unchanged. Put plainly: Negative allosteric modulation activity at human P2X7 receptor expressed in human 1321N1 cells assessed as ATP induced calcium response by measuring maximal ATP efficacy at 200 nM relative to control. The format is cell-based.
For data set [13] the target is unchanged. Put plainly: Negative allosteric modulation activity at human P2X7 receptor expressed in human 1321N1 cells assessed as reduction in ethidium bromide dye uptake at 20 uM preincubated for 15 mins followed by BzATP addition and measured after 30 mins by Ethidium bromide dye based fluorescence plate reader analysis relative to control. In kind it is cell-based. The following applies: filed as negative allosteric modulator, time 45.0 min.

Data set [14] has as its target T3, P2X purinoceptor 7. Description: Negative allosteric modulation activity at human P2X7 receptor expressed in human 1321N1 cells assessed as reduction in ethidium bromide dye uptake preincubated for 15 mins followed by BzATP addition and measured after 30 mins by Ethidium bromide dye based fluorescence plate reader analysis. In kind it is cell-based.
In data set [15] the target is T1, P2X purinoceptor 4 (Homo sapiens). Put plainly: Negative allosteric modulation activity at human P2X4 receptor expressed in human 1321N1 cells assessed as reduction in intracellular Ca2+ influx incubated for 30 mins by Fura-2 AM based fluorescence assay relative to control. In kind it is cell-based.

Take `CC(C)c1ccc(NC(=S)NC(=O)C23CC4CC(CC(C4)C2)C3)c(Br)c1`: the inhibition at 50 µM in [1] was 9.26%; in data set [3] it was 6.54%. For the same compound, the cytotoxicity at 24 h, 50 µM in data set [2] is 4.28%. The Emax came out at 68% in [4], 45% in data set [5] and 32% in data set [6]. Besides, the inhibition in data set [7] is 30%; in [8] it was 12%. Further, the IC50 in data set [9] stood at 25.2 µM.
With `O=C(NC(=S)Nc1cccc2cccnc12)C12CC3CC(CC(C3)C1)C2`, the results for the inhibition at 50 µM in data set [1] and in data set [3] were 9.12% and 6.22%, respectively. For the same compound, the cytotoxicity at 24 h, 50 µM in data set [2] is 5.05%. Further, the Emax came to 78% in data set [10], 59% in [11], 31% in data set [12] and 42% in data set [13]. Moreover, the IC50 in data set [14] is 0.068 µM. Moreover, the inhibition in data set [7] was found to be 15%; in data set [15], 25%; in [8], 32%.
